Test results published in the OligoGym collection.
These antisense oligonucleotides have a phosphorothioate backbone; sugars and methylation of C are not fully specified.

conditions: ASO
Further: test concentration or dose not given here.

Row | Sequence | remaining target (mRNA or protein) (fraction of control)
1 | TGAAGATGAATCTCAATCCA | 0.88
2 | ATTCAGCATTTTGTAAGG | 0.99
3 | TTACGCTCTGACTTCTGG | 0.81
4 | GGATCCTGTTGATCTCCT | ≥ 1
5 | CCTTGAAGACCTTGCGGA | 0.14
6 | CTGAAAGTGACAGTGTTT | 0.79
7 | ATTTCACTGTAAACGGCT | 0.81
8 | GTCCCAGAACCCTGCCCA | ≥ 1
9 | TTCTCCTGTCCACTAGAG | 0.98
10 | GATGACGGATGTGCTTTT | 0.74
11 | AGGTGACACGCCCGGAGA | ≥ 1
12 | CTATGGAAATGCAGCTTAAG | 0.87
13 | CTTTACTTCGCCGTCCAC | 0.59
14 | CCAACAAAACAGTCCAAA | 0.94
15 | TTCTCCTCCAGGCACTGG | ≥ 1
16 | GAGAGATGCCCACCCACC | ≥ 1
17 | CCAGGCTAAACCAGGCTG | 0.43
18 | GATGCGCTCCAGGTGGGA | 0.58
19 | GCTCCAGCAGCAGCAGCC | 0.94
20 | TGATTTCTTCACCTTTTC | ≥ 1
21 | GTCCAGGTAGCGGGCGAG | ≥ 1
22 | AACTGAAATAACAACTTA | 0.94
23 | CCACCGCCGCCGCCGCTG | 0.62
24 | ATCCGCAGGTTGGTTTTC | ≥ 1

Row | Sequence | remaining target (mRNA or protein) (fraction of control)
25 | AAAGCCATAGCCAGTTGC | ≥ 1
26 | CGTCGGGCTCCTTGCTGA | ≥ 1
27 | TCATGGCCCGCATGGACA | 0.7
28 | GACGTGCCTTTCTGCTAC | 0.72
29 | ATTGGTCTCTCGTCTTTC | ≥ 1
30 | CTTTGTTTCGGTTGCTGC | 0.64
31 | TGCATAAGAGGCCACAGCAG | 0.44
32 | TGTTAAGACACTGAAGAAAT | ≥ 1
33 | AAAGAAGGGATAAGCACT | 0.93
34 | CCGTGGATGATCCGCATC | ≥ 1
35 | CATAAGAGGCCACAGCAGGC | 0.41
36 | AGAGGCAGAGAAGAGAGC | 0.93
37 | AGCCAAATGGGAACTCACAG | 0.74
38 | CAGCACCCCAACCCTTAACA | 0.47
39 | GGGTCCGTTCCCTCAACA | ≥ 1
40 | GCCCTTTGCTTTCCAGAG | ≥ 1
41 | CCCCTCCACAAAAGTGCC | 0.78
42 | CCCGGGCAGCTGAGAGCCCT | 0.72
43 | CCACTAGAGTGCGCCAGA | ≥ 1
44 | AAATGGCCGTTTTGCTCC | ≥ 1
45 | TCCCAGGGTGTGCGTCAC | ≥ 1
46 | GGCAAGGCTTGAGTGCTG | 0.42
47 | CTGCTGTATCATTTTCTT | ≥ 1
48 | CTCATAGCAGGCCCGGAT | 0.44

Row | Sequence | remaining target (mRNA or protein) (fraction of control)
49 | CCCGCACGTCCTTGAAGA | 0.27
50 | ATCAGACTGGAGAGGAGC | 0.73
51 | CCTTCAGCAAAACAAAAC | 0.76
52 | GAGTTGGTAGCCTCCGTT | ≥ 1
53 | CCTTCAAAAGTTGTGCGG | ≥ 1
54 | TTCTCATCCTCCGTCAGG | ≥ 1
55 | CCACTCCCACCTCCCACC | ≥ 1
56 | TCCTTGCCTGAAACACCC | ≥ 1
57 | CGCCCGGCGGCTCTTTCT | ≥ 1
58 | GGCTGCGGAGCACGTCCT | 0.54
59 | GGCGAAGCTGATGCGGAC | ≥ 1
60 | GTGGAGTGCATAAGAGGCCA | 0.84
61 | TTGCCCAACCACTCGTTC | 0.45
62 | CTCCAGGATGTCGGTTTT | 0.77
63 | GGTAGGTCGTAGAAGATG | ≥ 1
64 | TCACAGCAGGTTGATCTC | ≥ 1
65 | GGAAACTGAGTCAAGCAA | 0.62
66 | TCCATTTCTTACGCTCTG | ≥ 1
67 | TTTCTGCACGGAGAAGCA | 0.26
68 | TATTATCGAGTGACTGGT | ≥ 1
69 | ATCGTGCGCCCTTCTTGC | ≥ 1
70 | GCAGAGCCGGCTGAAGTG | 0.96
71 | TGCACCAGTGGCTCGGCT | ≥ 1
72 | TAAGAGGCCACAGCAGGCTC | 0.42

Row | Sequence | remaining target (mRNA or protein) (fraction of control)
73 | GACTTCCTTGCCTGAAAC | ≥ 1
74 | CCACCACTACAGAGCAGG | ≥ 1
75 | CGCCCGCCGGTGCCGCCT | 0.47
76 | AAATAGGTAGCCAGGTGG | 0.99
77 | GCACAGCCTGTCTTCAAA | ≥ 1
78 | ATTTCCTGGGATGTGCGG | 0.48
79 | GCTGTGTCTCTGGGCATC | ≥ 1
80 | TCAGCATCCTGCTTAGGG | ≥ 1
81 | GGGCCCAAAAGCAGCAGC | 0.89
82 | TTGGTATCGATAGCACTACA | 0.96
83 | GCTTGAAGAAATGTTTTA | ≥ 1
84 | GTTCCAGGATAGTCCCAA | 0.34
85 | GCATCTGCTTGATGAAGG | ≥ 1
86 | TTCAAGTCTTCTTCCAAT | 0.85
87 | CTTAAGACATGACTGTTAAG | 0.89
88 | CCCTAGTCCACAGGTTCC | ≥ 1
89 | AATCTTTAATTTCAGCCC | ≥ 1
90 | TTATTCATACCGTTGTTG | 0.96
91 | GGTGGTGGAGTGCATAAGAG | 0.98
92 | ACAGTGTTTTCCGCGGT | 0.53
93 | TGCTGTCACTCACGCACTCG | 0.57
94 | CACCTGCAGCCGCCCGTCCA | 0.55
95 | AGAAAAGGAAATCCCAAA | ≥ 1
96 | GTGGTTGCGTGCCGATTCAC | 0.5

Row | Sequence | remaining target (mRNA or protein) (fraction of control)
97 | CTCGTAACAAACTGGTCGAA | 0.83
98 | TTCAATGGCTTCCACGAG | 0.94
99 | AAGGTTAAGATGCAGCAT | 0.55
100 | GATCTTGCAGACGGTAGCTG | 0.3
101 | TCGGCGGTGGCAAGGCTT | 0.97
102 | GTTCATTCCATTCAGTTG | 0.87
103 | ATCCCCTGATTTCTTCAC | 0.53
104 | CAGCGAGTACGTGACGGT | 0.93
105 | AGCGCCACACGCGACAGTAA | 0.56
106 | CAGGTAGATGAGGGCGAT | 0.74
107 | GTCCCCCGACTCCCTTGC | 0.27
108 | GCTCCCATCCTCGTCGCC | ≥ 1
109 | ATCTTCTTCTCTTTCCTT | ≥ 1
110 | ACCACAGAACTGAAGGTT | ≥ 1
111 | TGGAGAGATAGACCAGGA | 0.67
112 | GGCTCAGAAGGACTTCCTGG | 0.65
113 | TGGTGGAGTGCATAAGAGGC | 0.47
114 | TGCTTGTGGGCCGCGATT | 0.24
115 | ACGTAGCCCTCCTCGGTG | ≥ 1
116 | CCATGGTGCGGTGGCCTC | 0.94
117 | AGGAGGCAGTACTGGAGTCT | 0.7
118 | TGGGGGTGGTGGAGTGCATA | 0.53
119 | GTCTTCAGTGTTTTCATT | ≥ 1
120 | GTGTAGTGGCTGAAAAGG | ≥ 1

Row | Sequence | remaining target (mRNA or protein) (fraction of control)
121 | TTGCTCTCGGGCCTGCTG | 0.21
122 | GCCCGCACGGAGCCCTGC | 0.81
123 | CACCGATGCAGAGGTCGC | 0.87
124 | TCTCCTCCAGGCACTGGT | 0.18
125 | AGCTCGCGCGAACCCCTA | ≥ 1
126 | CTACAGGTTGGCCACTCTGG | 0.33
127 | GGGGTGGTGGAGTGCATAAG | 0.9
128 | TGTCCTGGTGAGAGGCAG | 0.73
129 | GTAAGTCCAGGAGATAGC | 0.86
130 | CTTTCAAAGGAGGGAAAC | ≥ 1
131 | TAGATGCACTTGGAGCGA | ≥ 1
132 | CTCATCCGGATAGTACACAT | 0.64
133 | AGGGAGGCTGCCTTTTCC | 0.63
134 | CCTCCACAGCCACTGCAT | 0.97
135 | GGAGTGCATAAGAGGCCACA | 0.56
136 | CGCATGGACACGAAGATG | ≥ 1
137 | TTTCTATCGTTGAGTTTCTG | ≥ 1
138 | ATCCTTTGTATTTCTTTC | 0.85
139 | TTCTGTGTGTCTGTGGCA | 0.19
140 | CTCCGGCGCGCACGGGAACC | 0.55
